Experimental data: ChEMBL document CHEMBL4837181 (Eur J Med Chem, 2020); call rule not given here
Blank lines part the entries; values can stand above or below the compound they belong to.

Tests used:
[1] = Tmax in female cynomolgus monkey at 225 mg/kg, po measured on day 1; assay type: ADME, organism-based, Macaca fascicularis; settings: in vivo
[2] = Cmax in human at 2400 mg administered bid; assay type: ADME; design: dose 2400 mg; settings: in vivo
[3] = Dose normalized AUC (0 to infinity) in rat at 50 mg/kg, po measured upto 72 hrs by LC-MS/MS analysis; assay type: ADME, organism-based; settings: in vivo
[4] = Stimulation of proliferation of CD8 positive T cells (unknown origin); assay type: functional, tissue-based; settings: CD8-positive T cell
[5] = Change in AUC(infinity) in rat at 185 umol/kg, po measured upto 72 hrs by LC-MS/MS analysis; assay type: ADME, organism-based; settings: in vivo, at 185 µmol/kg
[6] = Cmax in female cynomolgus monkey at 225 mg/kg, po measured on day 1; assay type: ADME, organism-based, Macaca fascicularis; design: route oral, dose 225 mg/kg; settings: in vivo
[7] = Apparent oral clearance in female cynomolgus monkey at 225 mg/kg, po measured on day 1; assay type: ADME, organism-based, Macaca fascicularis; settings: in vivo
[8] = Apparent oral clearance in female cynomolgus monkey at 150 mg/kg, po BID measured on day 8; assay type: ADME, organism-based, Macaca fascicularis; settings: in vivo
[9] = Cmax in po BID dosed cynomolgus monkey administered for 28 days; assay type: ADME, organism-based, Macaca fascicularis; design: route oral, time 28 day; settings: in vivo
[10] = Drug metabolism in cynomolgus monkey hepatocytes assessed as unmetabolized compound at 10 uM incubated for 120 mins by UPLC-QTOF-PDA analysis; assay type: ADME, cell-based, Macaca fascicularis, Hepatocyte; settings: read-out: Drug metabolism
[11] = AUC (0 to 12 hrs) in male rat at 150 mg/kg, po BID measured on day 28; assay type: ADME, organism-based; design: time < 12 hr, route oral, dose 150 mg/kg; settings: in vivo
[12] = AUC (0 to 24 hrs) in female cynomolgus monkey at 75 mg/kg, po BID measured on day 8; assay type: ADME, organism-based, Macaca fascicularis; design: time < 24 hr, route oral, dose 75 mg/kg; settings: in vivo
[13] = Chemical stability of compound in simulated intestinal fluid assessed as compound remaining at 5 uM measured after 3 hrs by LC-MS/MS analysis; assay type: ADME, physicochemical; settings: read-out: Stabilty
Cytochrome P450 2D6 = Cytochrome P450 2D6 (Homo sapiens, UniProt P10635); assay: Inhibition of CYP2D6 in human hepatocytes; assay type: ADME, cell-based, Hepatocyte
[14] = Drug metabolism in cynomolgus monkey assessed as indoximod formation of by measuring indoximod Tmax at 75 to 675 mg/kg, po administered as single dose; assay type: ADME, organism-based, Macaca fascicularis; settings: in vivo, dose 75-675 mg/kg
Cytochrome P450 1A2 = target: T1, Cytochrome P450 1A2 (Homo sapiens, UniProt P05177); assay: Induction of CYP1A2 in human hepatocytes; assay type: ADME, cell-based, Hepatocyte
T1 sequence (P05177 whole entry): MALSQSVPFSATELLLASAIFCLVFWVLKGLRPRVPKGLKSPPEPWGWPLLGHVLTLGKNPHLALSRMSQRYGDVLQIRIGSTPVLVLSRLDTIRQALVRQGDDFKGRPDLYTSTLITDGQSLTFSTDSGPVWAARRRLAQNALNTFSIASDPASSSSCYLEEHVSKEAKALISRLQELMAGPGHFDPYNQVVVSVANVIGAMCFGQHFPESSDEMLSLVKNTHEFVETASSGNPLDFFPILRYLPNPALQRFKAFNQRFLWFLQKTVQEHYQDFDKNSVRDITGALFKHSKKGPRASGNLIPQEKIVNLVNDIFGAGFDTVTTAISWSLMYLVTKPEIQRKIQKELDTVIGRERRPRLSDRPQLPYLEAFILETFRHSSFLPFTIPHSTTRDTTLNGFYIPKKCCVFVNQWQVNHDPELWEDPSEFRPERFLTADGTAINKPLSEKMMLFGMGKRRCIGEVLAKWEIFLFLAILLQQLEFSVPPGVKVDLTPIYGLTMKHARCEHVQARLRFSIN

[15] = Cmax in female rat at 180 mg/kg, po BID measured on day 28; assay type: ADME, organism-based; design: route oral, dose 180 mg/kg; settings: in vivo
[16] = Chemical stability of compound in PBS buffer assessed as compound remaining at pH 7.4 at 5 uM measured after 24 hrs by LC-MS/MS analysis; assay type: physicochemical; settings: read-out: Stabilty
[17] = AUC (0 to 24 hrs) in male cynomolgus monkey at 15 mg/kg, iv measured on day 1; assay type: ADME, organism-based, Macaca fascicularis; design: time < 24 hr, route intravenous, dose 15 mg/kg; settings: in vivo
[18] = Drug metabolism in rat assessed as indoximod formation by measuring indoximod Tmax at 20 to 900 mg/kg; assay type: ADME, organism-based; settings: in vivo, dose 20-900 mg/kg
[19] = target: T2, Solute carrier organic anion transporter family member 1B3 (Homo sapiens, UniProt Q9NPD5); assay: Inhibition of OATP1B3 (unknown origin) expressed in HEK293 cells; assay type: cell-based
T2 sequence (Q9NPD5 whole entry): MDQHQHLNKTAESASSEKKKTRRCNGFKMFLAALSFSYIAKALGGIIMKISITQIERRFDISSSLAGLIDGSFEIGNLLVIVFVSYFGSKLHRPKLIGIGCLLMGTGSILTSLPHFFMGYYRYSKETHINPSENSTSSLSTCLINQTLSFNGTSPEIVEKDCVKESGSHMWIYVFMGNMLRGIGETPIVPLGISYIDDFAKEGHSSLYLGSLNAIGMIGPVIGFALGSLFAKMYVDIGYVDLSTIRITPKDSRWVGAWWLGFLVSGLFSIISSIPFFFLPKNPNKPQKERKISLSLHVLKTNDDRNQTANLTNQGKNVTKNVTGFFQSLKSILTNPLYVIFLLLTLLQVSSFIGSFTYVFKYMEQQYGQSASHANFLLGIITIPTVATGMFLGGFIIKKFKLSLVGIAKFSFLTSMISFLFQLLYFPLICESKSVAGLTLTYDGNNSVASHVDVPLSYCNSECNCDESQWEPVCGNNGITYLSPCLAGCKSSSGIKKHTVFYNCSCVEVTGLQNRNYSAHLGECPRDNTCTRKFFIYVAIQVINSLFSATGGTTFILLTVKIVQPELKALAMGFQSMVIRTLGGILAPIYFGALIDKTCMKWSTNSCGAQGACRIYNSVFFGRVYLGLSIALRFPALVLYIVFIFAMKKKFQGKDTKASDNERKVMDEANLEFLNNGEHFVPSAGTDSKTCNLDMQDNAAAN

OAT3 = OAT3 (Homo sapiens, UniProt Q8TCC7); assay: Inhibition of OAT3 (unknown origin) expressed in HEK293 cells; assay type: cell-based
[20] = Oral bioavailability in male cynomolgus monkey at 825 micromol/kg; assay type: ADME, organism-based, Macaca fascicularis; settings: in vivo, at 825 µmol/kg
[21] = Chemical stability of compound in simulated intestinal fluid assessed as compound remaining at 5 uM measured after 24 hrs by LC-MS/MS analysis; assay type: ADME, physicochemical; settings: read-out: Stabilty
[22] = Stability in rat plasma assessed as parent compound remaining measured after 2 hrs by LC-MS/MS analysis; assay type: ADME, cell-free; settings: read-out: Stabilty
[23] = Apparent oral clearance in male cynomolgus monkey at 75 mg/kg, po BID measured on day 8; assay type: ADME, organism-based, Macaca fascicularis; settings: in vivo
[24] = Cmax in po BID dosed rat measured on day 28; assay type: ADME, organism-based; design: route oral, dose 180 mg/kg; settings: in vivo, 180 mg/kg
[25] = Solubility in water; assay type: physicochemical
[26] = Drug metabolism in cynomolgus monkey assessed as formation of M9 metabolite at 75 to 675 mg/kg, po administered as single dose; assay type: ADME, organism-based, Macaca fascicularis; settings: in vivo, dose 75-675 mg/kg
[27] = Oral bioavailability in female cynomolgus monkey at 75 mg/kg; assay type: ADME, organism-based, Macaca fascicularis; settings: in vivo
[28] = AUC (0 to 12 hrs) in female rat at 180 mg/kg, po BID measured on day 28; assay type: ADME, organism-based; design: time < 12 hr, route oral, dose 180 mg/kg; settings: in vivo
[29] = Drug metabolism in mouse assessed as formation of M9 metabolite at 20 to 900 mg/kg; assay type: ADME, organism-based; settings: in vivo, dose 20-900 mg/kg

Chain of OAT3 (Q8TCC7 whole entry, looked up): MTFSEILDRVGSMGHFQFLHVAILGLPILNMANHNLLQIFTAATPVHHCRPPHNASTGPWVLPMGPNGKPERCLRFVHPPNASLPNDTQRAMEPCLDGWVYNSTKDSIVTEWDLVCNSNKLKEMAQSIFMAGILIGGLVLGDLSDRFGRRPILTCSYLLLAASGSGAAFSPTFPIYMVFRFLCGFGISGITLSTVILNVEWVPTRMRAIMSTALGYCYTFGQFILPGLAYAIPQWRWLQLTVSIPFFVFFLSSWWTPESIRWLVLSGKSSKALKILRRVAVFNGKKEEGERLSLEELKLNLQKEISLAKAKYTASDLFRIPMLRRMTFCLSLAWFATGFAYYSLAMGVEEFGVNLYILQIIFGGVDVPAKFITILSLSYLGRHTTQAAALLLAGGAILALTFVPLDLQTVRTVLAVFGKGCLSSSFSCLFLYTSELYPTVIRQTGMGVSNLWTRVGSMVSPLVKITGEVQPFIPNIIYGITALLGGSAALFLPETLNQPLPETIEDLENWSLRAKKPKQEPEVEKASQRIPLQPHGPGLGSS
Chain of Cytochrome P450 2D6 (P10635 whole entry): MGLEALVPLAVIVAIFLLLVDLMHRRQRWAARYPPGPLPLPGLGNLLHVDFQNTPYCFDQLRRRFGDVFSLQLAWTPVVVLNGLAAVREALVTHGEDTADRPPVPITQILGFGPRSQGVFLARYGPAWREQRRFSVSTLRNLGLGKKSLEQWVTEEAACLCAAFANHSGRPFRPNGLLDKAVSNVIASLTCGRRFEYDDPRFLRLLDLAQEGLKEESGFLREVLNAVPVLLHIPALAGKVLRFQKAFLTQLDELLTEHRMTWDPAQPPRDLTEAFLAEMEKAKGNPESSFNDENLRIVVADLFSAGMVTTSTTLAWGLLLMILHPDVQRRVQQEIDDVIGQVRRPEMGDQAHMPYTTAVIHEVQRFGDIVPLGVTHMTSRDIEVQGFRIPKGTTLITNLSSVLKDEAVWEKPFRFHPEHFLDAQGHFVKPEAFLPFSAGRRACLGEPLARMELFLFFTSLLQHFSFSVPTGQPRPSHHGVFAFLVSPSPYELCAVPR

- Tmax [1]: 1 h
- Cmax [2]: 22 µM
- AUC/dose [3]: 1323 µM·h
- Activity [5]: 0%
- Cmax [6]: 68.5 µM
- CL/F [7]: 82.2 mL/min/kg
- CL/F [8]: 17.6 mL/min/kg
- Cmax [9]: 103 µM
SMILES: Cn1cc(C[C@@H](N)C(=O)O)c2ccccc21 [INDOXIMOD]
- EC50 [4]: ≥ 30 µM

SMILES: CCOC(=O)[C@@H](Cc1cn(C)c2ccccc12)NC(=O)[C@@H](N)CC(C)C.Cl
- remaining at 2 h, 10 µM [10]: 1.3%
- AUC at 12 h [11]: 1410 µM·h
- AUC at 24 h [12]: 0.0356 µM·h
- remaining at 3 h, 5 µM [13]: 91%
- IC50 (Cytochrome P450 2D6): 19 µM
- Tmax [14]: 1 h
- Activity (Cytochrome P450 1A2): Not Active
- Cmax [15]: 170 µM
- remaining at 24 h, 5 µM [16]: 48%
- AUC [17]: 309 nM·h
- Tmax [18]: 1 h
- IC50 [19]: > 50 µM
- IC50 (OAT3): > 50 µM
- F [20]: 6%
- remaining at 24 h, 5 µM [21]: 30%
- remaining at 2 h [22]: 0%
- CL/F [23]: 25.6 mL/min/kg
- Cmax [24]: 110 µM
- solubility [25]: 19.8 mg/mL
- Drug metabolism [26]: Metabolite_Detected
- bioavailability [27]: 50.1%
- AUC at 12 h [28]: 1380 µM·h
- Drug metabolism [29]: Metabolite_Detected
